The term MIC denotes the lowest concentration found to suppress growth. Read a high MIC as a need for much substance.

This is an account of results in patent US5480879A, “Quinolonecarboxylic acids” (Bayer Aktiengesellschaft, priority 1992, dated 1996).

Values after ≈ are worked out from the molar mass of the structure shown.

Holding throughout (test): MIC in microtitre plates, brain-heart infusion broth
Assay type in all cases: cell-based

The subject of assay [1] is Staphylococcus aureus 1756. The following applies: about 10^5 microorganisms/ml inoculum. An excerpt: (§1) The determination of the "minimum inhibitory concentrations" (MIC) was effected in mitrotitre plates using brain-heart infusion broth, with about 10^5 microorganisms/ml being employed as the inoculum.
Assay [2] relates to Staphylococcus aureus ICB 25768. The conditions noted are these: ICB25768, about 10^5 microorganisms/ml inoculum.
Text: as §1

In assay [3] the test system is Serratia marcescens 16040. The following applies: about 10^5 microorganisms/ml inoculum.
Text: as §1

Another assay has as its system Escherichia coli Neumann. The following applies: about 10^5 microorganisms/ml inoculum.
Text: as §1

Assay [4] deals with Enterococcus faecalis 27101. The conditions noted are these: about 10^5 microorganisms/ml inoculum.
Text: as §1

The next assay deals with Klebsiella sp. 63. The conditions noted are these: about 10^5 microorganisms/ml inoculum.
Text: as §1

Assay [5] relates to Enterococcus faecalis 9790. The following applies: about 10^5 microorganisms/ml inoculum.
Text: as §1

Assay [6] deals with Staphylococcus aureus ICB 25701. The conditions noted are these: ICB25701, about 10^5 microorganisms/ml inoculum.
Text: as §1

The subject of assay [7] is Staphylococcus aureus 133. The conditions noted are these: about 10^5 microorganisms/ml inoculum.
Text: as §1

Take `O=C(Cc1ccccc1)N[C@@H]1C(=O)N2C(C(=O)O)=C(CN3CCN(c4c(F)cc5c(=O)c(C(=O)O)cn(C6CC6)c5c4Cl)CC3)CS[C@H]12` [B]: the minimum inhibitory concentration (MIC) turned out to be 0.03 µg/mL (≈ 0.0431 µM) in assay [1]; 128 µg/mL (≈ 184 µM) in [2]; 16 µg/mL (≈ 23 µM) in [3]; 0.25 µg/mL (≈ 0.359 µM) in the assay with Escherichia coli Neumann; 8 µg/mL (≈ 11.5 µM) in assay [4]; 1 µg/mL (≈ 1.44 µM) against Klebsiella sp. 63. Further, the MIC turned out to be 8 µg/mL (≈ 11.5 µM) in assay [5], 32 µg/mL (≈ 46 µM) in [6] and 0.125 µg/mL (≈ 0.18 µM) in assay [7].
Regarding `O=C(Cc1ccccc1)N[C@@H]1C(=O)N2C(C(=O)O)=C(CN3CCC[C@H]4CN(c5c(F)cc6c(=O)c(C(=O)O)cn(C7CC7)c6c5Cl)C[C@H]43)CS[C@H]12` [A, 7-[2-([6R,7R ]-2-Carboxy-8-oxo-7-phenylacetylamino-5-thia-1-aza-bicyclo[4.2.0]oct-2-en-3-ylmethyl)-[1S,6S]-2,8-diazabicyclo[4.3.0]non-8-yl]-8-chloro-1-cyclopropyl-6-fluoro-1,4-dihydro-4-oxo-3-quinolinecarboxylic acid], the minimum inhibitory concentration (MIC) in assay [1] turned out to be 0.004 µg/mL (≈ 0.00543 µM); in assay [2] it was 2 µg/mL (≈ 2.72 µM); in assay [3] it was 4 µg/mL (≈ 5.43 µM); in the assay on Escherichia coli Neumann, 0.03 µg/mL (≈ 0.0407 µM); in [4] it was 0.25 µg/mL (≈ 0.34 µM); in the assay on Klebsiella sp. 63, 0.125 µg/mL (≈ 0.17 µM). In addition, the MIC in [5] is 0.25 µg/mL (≈ 0.34 µM); in assay [6], 0.25 µg/mL (≈ 0.34 µM); in [7] it was 0.03 µg/mL (≈ 0.0407 µM).
